Laboratory results: patent publication US5552308A, “CDNA clone of a rat serotonin transporter and protein encoded thereby” (priority 1991, dated 1996)

Key:
5-HT transporter [1] = target: T1, 5-HT transporter (Rattus norvegicus, UniProt P31652); experiment: 3H-5-HT uptake (saturation kinetics, ion dependence) in CV-1 cells transfected with the 5HTT cDNA; type: cell-based; settings: read-out: Km of 3H-5-HT uptake; transfected CV-1 cells; 3H-5-HT 0.1 nM to 10 uM; 15 min; mean +/- SEM
5-HT transporter [2] = target: T1, 5-HT transporter; experiment: Inhibition of 3H-5-HT uptake in CV-1 cells transfected with the 5-HT transporter cDNA; type: cell-based; settings: for inhibition of 5-HT uptake (in words): CV-1 cells transfected with 5HTT cDNA
serotonergic neurons = settings: cited from earlier work
5-HT transporter [3] = settings: cited from earlier work

T1 sequence (P31652 whole entry): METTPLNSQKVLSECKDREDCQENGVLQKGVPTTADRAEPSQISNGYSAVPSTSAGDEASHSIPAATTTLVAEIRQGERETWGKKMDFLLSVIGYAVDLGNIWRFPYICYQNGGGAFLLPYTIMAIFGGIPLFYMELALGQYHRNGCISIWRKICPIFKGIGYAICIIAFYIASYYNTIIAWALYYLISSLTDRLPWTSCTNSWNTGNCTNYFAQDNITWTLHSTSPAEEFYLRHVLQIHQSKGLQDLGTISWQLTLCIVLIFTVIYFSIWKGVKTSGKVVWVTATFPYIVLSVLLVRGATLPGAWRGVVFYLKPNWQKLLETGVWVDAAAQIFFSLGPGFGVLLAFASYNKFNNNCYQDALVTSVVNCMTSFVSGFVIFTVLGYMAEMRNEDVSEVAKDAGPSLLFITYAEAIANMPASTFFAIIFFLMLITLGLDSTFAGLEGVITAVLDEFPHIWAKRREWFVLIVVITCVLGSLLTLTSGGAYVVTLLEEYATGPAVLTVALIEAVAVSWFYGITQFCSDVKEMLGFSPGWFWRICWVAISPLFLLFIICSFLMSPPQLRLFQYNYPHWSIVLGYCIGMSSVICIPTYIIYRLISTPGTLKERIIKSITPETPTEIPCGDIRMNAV

Structure (SMILES) | Ki (5-HT transporter [2]) | inhibition of 5-HT uptake (in words) (5-HT transporter [2]) | other results
NCCc1c[nH]c2ccc(O)cc12 [^3 H-5-HT, serotonin] | – | – | Km (5-HT transporter [1]): 0.529 ± 0.107 µM
NCCc1ccc(O)c(O)c1 [dopamine] | > 10000 nM | ineffective at blocking 5-HT uptake | –
NC[C@H](O)c1ccc(O)c(O)c1 [noradrenaline] | > 10000 nM | ineffective at blocking 5-HT uptake | –
CNC(C)Cc1ccc2c(c1)OCO2 (racemic) [± MDMA, 3,4-Methylenedioxy-methamphetamine] | 186 ± 27 nM | potent inhibition of ^3 H-5-HT uptake | neurotoxicity to serotonergic neurons (in words) (serotonergic neurons): potent neurotoxin of serotonergic neurons which causes irreversible cell degeneration
COC(=O)[C@H]1[C@@H](OC(=O)c2ccccc2)C[C@@H]2CC[C@H]1N2C [cocaine] | – | relatively potent inhibitor of 5-HT uptake | –
CC(N)Cc1ccccc1 (stereo not drawn) [Amphetamine] | – | – | transport by the 5-HT transporter and release of 5-HT (in words) (5-HT transporter [3]): substrates for transport by the 5-HT transporter and stimulate release of 5-HT
OC1(c2ccc(Cl)cc2)c2ccccc2C2=NCCN21 (stereo not drawn) [mazindol] | 548 ± 120 nM | lower affinity for the 5-HT transporter | –
